From ChEMBL document CHEMBL1157662, “Antimalarial and antileishmanial activities of histone deacetylase inhibitors with triazole-linked cap group” (Bioorg Med Chem, 2010)
Converted amounts (≈) assume the structure as drawn. The source made the active and inactive calls. No cut-off for these calls is given here.

Legend:
Leishmania donovani [1] = test: Antileishmanial activity against Leishmania donovani promastigotes after 72 hrs by alamar blue assay; format: functional, organism-based
Plasmodium falciparum [2] = test: microbe, parasite or virus in culture; format: functional, organism-based, W2, Vero
Description: Antimalarial activity against chloroquine-resistant Plasmodium falciparum W2 infected in African green monkey (Cercopithecus aethiops) Vero cells assessed as parasite LDH activity after 72 hrs by Malstat reagent method

[3] = Selectivity index, ratio of IC50 for african green monkey (Cercopithecus aethiops) Vero cells to IC50 for chloroquine-resistant Plasmodium falciparum W2
[4] = Selectivity index, ratio of IC50 for african green monkey (Cercopithecus aethiops) Vero cells to IC50 for chloroquine-sensitive Plasmodium falciparum D6
Plasmodium falciparum [5] = test: Ratio of suberoylanilide hydroxamic acid IC50 to compound IC50 for chloroquine-resistant Plasmodium falciparum W2 infected in […]; format: functional
Plasmodium falciparum [6] = test: microbe, parasite or virus in culture; settings: D6, Vero, 72 h
Description: (§1) Antimalarial activity against chloroquine-sensitive Plasmodium falciparum D6 infected in African green monkey (Cercopithecus aethiops) Vero cells assessed as parasite LDH activity after 72 hrs by Malstat reagent method

Plasmodium falciparum [7] = test: Ratio of suberoylanilide hydroxamic acid IC50 to compound IC50 for chloroquine-sensitive Plasmodium falciparum D6 infected in […]; format: functional
Vero = test: Cytotoxicity against african green monkey Vero cells after 1 to 2 days by neutral red assay; format: ADME, cell-based, Chlorocebus sabaeus
Plasmodium falciparum [8] = settings: vero
Description: as §1

Leishmania donovani [9] = test system: Leishmania donovani
Leishmania donovani [10] = test: Ratio of suberoylanilide hydroxamic acid IC50 to compound IC50 for Leishmania donovani promastigotes; format: functional
Leishmania donovani [11] = test: Ratio of suberoylanilide hydroxamic acid IC50 to compound IC50 for Leishmania donovani promastigotes
[12] = Leishmania donovani, 72 h, read-out: IC50
[13] = Plasmodium falciparum, W2, Vero, 72 h, read-out: IC50
[14] = Chlorocebus sabaeus, Vero, read-out: IC50

In the case of `COc1ccc2cc(-c3cn(CCCCCCC(=O)NO)nn3)ccc2c1`, the IC90 (Leishmania donovani [1]; Leishmania donovani, 72 h) was > 40 µg/mL, the IC50 (Leishmania donovani [1]; [12]) was 18.5 µg/mL (≈ 50.2 µM) and the IC50 (Plasmodium falciparum [2]; [13]) was 0.053 µg/mL (≈ 0.144 µM). For the same molecule, the selectivity ratio [3] was 50, the selectivity ratio [4] was 55.8 and the “Ratio IC50” value (Plasmodium falciparum [5]) was 5. The IC50 (Plasmodium falciparum [6]) was 0.0475 µg/mL (≈ 0.129 µM), the “Ratio IC50” value (Plasmodium falciparum [7]) was 5 and the IC50 (Vero; [14]) was 2.65 µg/mL (≈ 7.19 µM).

In the case of `COc1ccc2cc(-c3cn(CCCCCC(=O)NO)nn3)ccc2c1`, the IC90 (Leishmania donovani [1]; Leishmania donovani, 72 h) was > 40 µg/mL, the IC50 (Leishmania donovani [1]; [12]) was 18 µg/mL (≈ 50.8 µM) and the IC50 (Plasmodium falciparum [2]; [13]) was 0.031 µg/mL (≈ 0.0875 µM). For the same molecule, the selectivity ratio [3] was > 91.9, the selectivity ratio [4] was > 81.4 and the “Ratio IC50” value (Plasmodium falciparum [5]) was 5. For the same molecule, the IC50 (Plasmodium falciparum [6]) was 0.035 µg/mL (≈ 0.0988 µM), the “Ratio IC50” value (Plasmodium falciparum [7]) was 5 and the IC50 (Vero; [14]) was 2.85 µg/mL (≈ 8.04 µM).

For `O=C(CCCCCn1cc(-c2ccc3cccnc3c2)nn1)NO`, the IC90 (Leishmania donovani [1]; Leishmania donovani, 72 h) was > 40 µg/mL, the IC50 (Leishmania donovani [1]; [12]) was 18.5 µg/mL (≈ 56.9 µM) and the IC50 (Plasmodium falciparum [2]; [13]) was 0.033 µg/mL (≈ 0.101 µM). The selectivity ratio [3] was > 144, the selectivity ratio [4] was > 90.7 and the “Ratio IC50” value (Plasmodium falciparum [5]) was 5. The IC50 (Plasmodium falciparum [6]) was 0.0525 µg/mL (≈ 0.161 µM), the “Ratio IC50” value (Plasmodium falciparum [7]) was 5 and the IC50 (Vero; vero) was “Non-toxic”.

In the case of `COc1cccc(-c2cn(CCCCCC(=O)NO)nn2)c1`, the IC50 (Leishmania donovani [1]) was “Not Active”, the IC50 (Plasmodium falciparum [2]; vero) was “Not Active” and the IC50 (Plasmodium falciparum [8]) was “Not Active”. The IC90 (Leishmania donovani [9]) was “inactive” and the IC50 (Vero; vero) was “Non-toxic”.

With `O=C(CCCCCn1cc(-c2ccc3ccccc3n2)nn1)NO` the IC90 (Leishmania donovani [1]; Leishmania donovani, 72 h) was 39 µg/mL (≈ 120 µM), the IC50 (Leishmania donovani [1]; [12]) was 9.5 µg/mL (≈ 29.2 µM) and the IC50 (Plasmodium falciparum [2]; [13]) was 0.034 µg/mL (≈ 0.104 µM). For the same molecule, the selectivity ratio [3] was 70.6, the Ratio (Leishmania donovani [10]) was 2 and the selectivity ratio [4] was 72.7. For the same molecule, the “Ratio IC50” value (Plasmodium falciparum [5]) was 5, the IC50 (Plasmodium falciparum [6]) was 0.033 µg/mL (≈ 0.101 µM) and the IC50 ratio (Leishmania donovani [11]) was 2. The “Ratio IC50” value (Plasmodium falciparum [7]) was 5 and the IC50 (Vero; [14]) was 2.4 µg/mL (≈ 7.38 µM).
